# Data as given in publication PMC7765298, “EGFR-Binding Peptides: From Computational Design towards Tumor-Targeting of Adeno-Associated Virus Capsids” (International Journal of Molecular Sciences, 2020).
# pKd: −log10 of the molar value.
# Key:
# EGFR = conditions: dissociation constant described for EGFR-binding peptide GE11; cited from earlier work
# A431 cells = assay: Wound healing assay; type: cell-based; conditions: 1 nM recombinant human EGF in RPMI medium, positive control
# Description: Since biophysical measurements are confounded by the intrinsic diversity of receptor conformations and imaging of moderate binding is difficult, we assessed peptide activity using a cell-based functional assay. Epidermoid tumor cell line A431 depends on EGF signaling for proliferation and migration, which can be assessed by wound healing assays monitoring the closure of a scratch in a cell lawn. A431 cells were grown to a confluent cell monolayer, serum-starved, and scratched. The resulting gap was monitored by microscopy and measured over a 6-h period (Figure 3A). As a positive, control cells were treated with 1 nM recombinant human EGF (hEGF) in RPMI medium. Cell migration in µm/h was calculated from a linear regression of the gap area over time plotted against time (Figure S6). […]
# Figure 3 Effect of EGFR-directed peptides in the presence of the natural EGFR-ligand EGF in a wound healing assay with A431 cells. […] The yellow cell borders were detected by image recognition using ImageJ. […] (B) Bar chart presenting the cell migration velocity as determined from microscopy images. […]
# Figure S6. […] The gap area over time is analyzed for each sample.
# Areas were calculated using ImageJ. Linear regressions were calculated to determine to growth rate. […]
Substance,pKd (EGFR),increase in cell migration compared to negative control (buffer) (A431 cells)
YHWYGYTPQNVI [GE11],3.34,
"hEGF: recombinant human epidermal growth factor, positive control",,three-fold increase
